How the values were obtained:
Format in all cases: cell-based
[1] = test system: A. Niger; assay: Minimum inhibitory concentration (MIC) versus A. niger
Description: In the instance of anti-fungal activity, detailed analysis has been carried out with a prototypical pathogen, Trichophytone mentagrophytes. The testing was conducted and illustrates the activity of the ACQA agents that are the subject of this invention. A Time Kill (D-Value) study (ASTM protocol #1891-97 Standard Guide For Determination Of A Survival Curve For Antimicrobial Agents Against Selected Microorganisms And Calculation Of A D-value And Concentration Coefficient) was carried out to screen for the antifungal activity of glycopyrrolate (3%). Testing was done to determine the speed at which the product kills a representative test organism, which was Trichophyton mentagrophytes, a representative dermatophyte-causing species. Determination of the minimum inhibitory concentration (MIC) versus A. Niger, a prototypical fungi was also initiated. The vehicle was 65% water/35% ethanol.
(§1) Additional scientific investigation was completed to verify the drug class aspects of this invention. […] Specifically, Mepenzolate bromide and Ipratropium bromide were evaluated utilizing standardized microbiological test methods for minimum inhibitory concentration (MIC) versus A. niger and C. albicans. MICs in the range of 1% were observable, confirming the antifungal activity of this class of compound. Insofar as ipratropium is used for intranasal purposes, it is apparent that the discovered property is not predicted by any known attribute of this class of drugs.

[2] = test system: Trichophyton mentagrophytes; assay: Time Kill (D-Value) study, antifungal; details: glycopyrrolate 3%, vehicle 65% water/35% ethanol
Source text: (§2) In Vitro and in vivo tests can be used to show the efficacy of antimicrobial products. With appropriate controls and methods In Vitro tests are applicable to all products. The time-to-kill test is used to determine the killing kinetics and activity spectrum of antimicrobials. In this example, the test was, as is usual, performed in suspension. The principle is to place the product or agent in contact with an inoculum for a specified period of time. At the end of the contact time, the mixture is inactivated by dilution into neutralizing broth. Serial dilutions in appropriate broth are performed and the number of surviving bacterial observed on solid culture media. It is general practice to test agents so that the final concentration is representative of the use concentration of the product.
In the instance of anti-fungal activity, detailed analysis has been carried out with a prototypical pathogen, Trichophytone mentagrophytes. The testing was conducted and illustrates the activity of the ACQA agents that are the subject of this invention. A Time Kill (D-Value) study (ASTM protocol #1891-97 Standard Guide For Determination Of A Survival Curve For Antimicrobial Agents Against Selected Microorganisms And Calculation Of A D-value And Concentration Coefficient) was carried out to screen for the antifungal activity of glycopyrrolate (3%). […]

[3] = test system: Corynebacterium vitaeruminis; assay: Time Kill (D-Value) study, antibacterial; details: glycopyrrolate 3%, vehicle 65% water/35% ethanol
Source text: as §2
(§3) Similarly, In Vitro and In Vivo tests can be used to show the efficacy of antimicrobial products against bacterial species. Such a Time Kill (D-Value) study was conducted and illustrates the antibacterial activity of the ACQA agents that are the subject of this invention. In this case, the study was carried out to screen for the antibacterial activity of glycopyrrolate (3%) and triclosan (0.3%). Testing was done to determine the speed and MIC at which the product kills representative test organisms, which were Micrococcus luteous (syn ATTC 9341 changed to Kocuria rhizophila), Staphylococcos epidermidis and Corynebacterium vitaeruminis, representative odor-causing species. Once again, the vehicle was 65% water/35% ethanol.

[4] = test system: Micrococcus luteous (syn ATTC 9341 changed to Kocuria rhizophila); assay: Time Kill (D-Value) study, antibacterial; details: glycopyrrolate 3%, vehicle 65% water/35% ethanol
Source text: as §2, §3

[5] = test system: Staphylococcos epidermidis; assay: Time Kill (D-Value) study, antibacterial; details: glycopyrrolate 3%, vehicle 65% water/35% ethanol
Source text: as §2, §3

[6] = test system: C. albicans; assay: Minimum inhibitory concentration (MIC) versus C. albicans
Description: as §1

MIC versus A. niger [1] | SMILES | time to antifungal effect over and above vehicle in D Value study [2] | time to kill in D Value study [3] | time to kill in D Value study [4] | time to kill in D Value study [5] | MIC versus C. albicans [6]
> 0.1% | C[N+]1(C)CCC(OC(=O)C(O)(c2ccccc2)C2CCCC2)C1 (stereo not drawn) [glycopyrrolate] | 24 min | 4 min | 4 min | 4 min | –
~1% | C[N+]1(C)CCCC(OC(=O)C(O)(c2ccccc2)c2ccccc2)C1 (stereo not drawn) [Mepenzolate bromide] | – | – | – | – | ~1%

SMILES | MIC versus A. niger [1] | time to antifungal effect over and above vehicle in D Value study [2] | time to kill in D Value study [3] | time to kill in D Value study [4] | time to kill in D Value study [5] | MIC versus C. albicans [6]
CC(C)[N+]1(C)[C@@H]2CC[C@H]1CC(OC(=O)C(CO)c1ccccc1)C2.[Br-] (stereo partly drawn) [Ipratropium bromide] | ~1% | – | – | – | – | ~1%
